According to publication PMC11721041 (Molecules, 2024):
Several values for one entry are separate records, joined by “and”; a condition that tells them apart may be missing. Identical values can stand only once. Like-named read-outs stand apart in the source and are kept apart here.

What was measured:
[1] = molecular target: AChE; conditions: cited from earlier work; for type of inhibition of AChE: native triterpenic acids
[2] = molecular target: butyrylcholinesterase (BChE); conditions: cited from earlier work; for BChE activity (in words): native triterpenic acids
[3] = molecular target: T1, Acetylcholinesterase from Electrophorus electricus (electric eel) (Electrophorus electricus, UniProt O42275); assay: In vitro AChE inhibition assay (modified Ellman's method); assay type: biochemical; conditions: for IC50: IC50 against AChE enzyme, triplicate; for IC50 / AChE inhibitory activity (in words): electric eel AChE, Ellman's assay; for times more active than 3-oxo-analog: indole derivative vs its 3-oxo amide
T1 construct: purchased Sigma-Aldrich C2888
T1 sequence (O42275 24-633): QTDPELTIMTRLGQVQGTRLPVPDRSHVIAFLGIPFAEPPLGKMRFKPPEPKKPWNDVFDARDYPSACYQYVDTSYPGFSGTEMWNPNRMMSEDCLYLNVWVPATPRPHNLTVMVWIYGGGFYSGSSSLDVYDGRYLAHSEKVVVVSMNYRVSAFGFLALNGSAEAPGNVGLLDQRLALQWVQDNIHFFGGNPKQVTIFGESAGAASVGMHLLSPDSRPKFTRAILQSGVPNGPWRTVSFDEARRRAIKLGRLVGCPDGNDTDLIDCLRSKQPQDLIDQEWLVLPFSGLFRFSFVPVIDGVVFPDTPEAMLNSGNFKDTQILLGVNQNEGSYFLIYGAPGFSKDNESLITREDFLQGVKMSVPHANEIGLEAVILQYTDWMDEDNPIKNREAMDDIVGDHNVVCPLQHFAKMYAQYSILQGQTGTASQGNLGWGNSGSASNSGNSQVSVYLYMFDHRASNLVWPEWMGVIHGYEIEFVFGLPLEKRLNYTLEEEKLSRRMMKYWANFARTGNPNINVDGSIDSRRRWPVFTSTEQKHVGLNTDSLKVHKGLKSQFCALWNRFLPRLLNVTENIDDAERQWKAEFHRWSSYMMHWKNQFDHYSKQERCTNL
Description: Acetylcholinesterase from Electrophorus electricus (electric eel) (AChE, Sigma C2888), sodium phosphate buffer (PBS) 0.1 M pH 7.4, acetylthiocholine iodide (ACT, Sigma A5751), and 5,5′-dithiobis-(2-nitrobenzoic acid) (DTNB, Sigma D8130) were purchased from Sigma-Aldrich (St. Louis, MO, USA). In vitro anti-AChE activity was performed based on the modified Ellman’s method. […] The IC50 values were determined graphically from inhibition curves (log inhibitor concentration vs. percent of inhibition). All experiments were performed in triplicate. Donepezil was used as a positive control

[4] = molecular target: T2, recombinant human acetylcholinesterase (hAChE) (Homo sapiens, UniProt P22303); assay: In vitro inhibition of recombinant human AChE (Ellman's method), IC50; assay type: biochemical; conditions: 1 mM ATC, pH 8.0, 25 °C, read-out: IC50 against hAChE enzyme
T2 construct: purchased Sigma-Aldrich
T2 sequence (P22303 32-614): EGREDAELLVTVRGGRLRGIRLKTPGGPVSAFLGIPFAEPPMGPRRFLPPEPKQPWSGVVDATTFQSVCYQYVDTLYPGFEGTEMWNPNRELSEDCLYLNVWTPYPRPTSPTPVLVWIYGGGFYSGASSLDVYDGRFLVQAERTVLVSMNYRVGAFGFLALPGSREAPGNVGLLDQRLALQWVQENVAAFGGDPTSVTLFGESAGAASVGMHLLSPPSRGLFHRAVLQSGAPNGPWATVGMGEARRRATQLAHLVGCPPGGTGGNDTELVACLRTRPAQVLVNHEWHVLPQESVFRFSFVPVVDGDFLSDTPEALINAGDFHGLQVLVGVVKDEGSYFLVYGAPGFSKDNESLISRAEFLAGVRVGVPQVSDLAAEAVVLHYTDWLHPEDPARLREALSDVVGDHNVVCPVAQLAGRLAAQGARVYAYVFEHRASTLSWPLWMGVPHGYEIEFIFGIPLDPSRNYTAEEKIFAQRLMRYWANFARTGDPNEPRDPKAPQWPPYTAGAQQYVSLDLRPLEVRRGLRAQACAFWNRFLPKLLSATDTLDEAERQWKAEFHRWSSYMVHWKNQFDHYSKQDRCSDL
Description: Acetylthiocholine iodide (ATC), recombinant human acetylcholinesterase (hAChE), and 5,5′-dithio-bis-(2-nitrobenzoic) acid (DTNB) were purchased from Sigma-Aldrich (Sigma-Aldrich). Dimethyl sulfoxide (DMSO) was purchased from PanReac AppliChem GmbH (Darmstadt, Germany). All other chemicals were of biochemical grade. All assays were performed at 25 °C using a UV-1800 Shimadzu (Kyoto, Japan) spectrophotometer at 412 nm. The inhibitory potency of compounds against hAChE was studied using Ellman’s method. Stock solutions of compounds (0.01 M) were prepared using DMSO. The final concentration of DMSO in the cuvette was less than 0.05% vol. The inhibitory effect against AChE of 0.05% DMSO was considered weak. To determine the IC50 (the concentration of the compound producing 50% enzyme activity inhibition), enzyme-catalyzed hydrolysis was carried out in 0.1 M phosphate buffer (pH 8.0) containing hAChE in the picomolar range, DTNB (0.1 mM final concentration), and 1 mM ATC as substrate. […] Then, absorbance change was recorded for 2 min. […] The percentage of hAChE inhibition was determined by comparison of rates of reaction of test samples relative to the control sample. […] IC50 was calculated using the Hill Equation: E/Emax=I^n/IC50n+I^n where E is the enzyme activity and [I] is the compound concentration.

[5] = molecular target: T2, recombinant human acetylcholinesterase (hAChE); assay: hAChE inhibition constants and inhibition type (Dixon and Cornish-Bowden plots); assay type: biochemical; conditions: for type of AChE inhibition: Dixon and Cornish-Bowden plots
Description: The inhibition constants for hAChE were determined in 0.1M sodium phosphate buffer (pH 8.0) with various ATC concentrations in the range 0.1–1 mM. The rate of hydrolysis of ATC was measured after the addition of DTNB (0.1 mM final concentration) and enzyme. The final enzyme concentration in the assays was in the picomolar range. Controls of the active enzyme with 0.05% DMSO and ATC spontaneous hydrolysis in the absence of an inhibitor were performed for each substrate concentration. The rate of substrate hydrolysis was recorded by monitoring the linear optical density change at 412 nm for 5 min. Experiments were performed in triplicate. Inhibition constants were determined from the Dixon plot and Cornish-Bowden transformation using OriginPro 8.5 software (OriginLab Corporation, Northampton, MA, USA).

[6] = system: human T-lymphoblastic leukemia cancer cells; conditions: cited from earlier work
[7] = design: method as in PMID 32090748; conditions: combination with SSRIs, patients with MDD; cited from earlier work

For `C=C(C)[C@@H]1CC[C@]2(C(=O)NCCN3CCCCC3)CC[C@]3(C)C(CCC4[C@@]5(C)CC[C@H](O)C(C)(C)C5CC[C@]43C)C12` (stereo partly drawn), the Ki ([1]; selective inhibition of AChE) is given as 1 µM.
For `CC(=O)O[C@H]1CC[C@@]2(C)C(CC[C@]3(C)C2CCC2C4[C@H](C(C)=O)CC[C@]4(C(=O)NCCN4CCCC4)CC[C@]23C)C1(C)C` (stereo partly drawn), the Ki ([2]; read-out: Ki against BChE) is listed as 0.07 µM.
In the case of `C=C(C)[C@@H]1CC[C@]2(C(=O)NC3CN4CCC3CC4)CC[C@]3(C)C(CCC4[C@@]5(C)CCC(=O)C(C)(C)C5CC[C@]43C)C12` (mixture of isomers) [Compound 6, 3-oxo-lup-20-en-28-((±)-3-aminoquinuclidine) amide], the IC50 [3] is reported as 17 ± 1.04 µM and the “AChE inhibitory activity (in words)” value [3] is reported as “weak activity”.
With `CC1(C)CC[C@]2(C(=O)NC3CN4CCC3CC4)CC[C@]3(C)C(=CCC4[C@@]5(C)CCC(=O)C(C)(C)C5CC[C@]43C)C2C1` (mixture of isomers) [Compound 7, 3-oxo-olean-12-en-28-((±)-3-aminoquinuclidine) amide] the IC50 [3] was 1.67 ± 0.05 µM.
For `C[C@@H]1CC[C@]2(C(=O)NC3CN4CCC3CC4)CC[C@]3(C)C(=CCC4[C@@]5(C)CCC(=O)C(C)(C)C5CC[C@]43C)C2[C@H]1C` (mixture of isomers) [Compound 8, 3-oxo-urs-12-en-28-((±)-3-aminoquinuclidine) amide], the IC50 [3] was 0.43 ± 0.02 µM, the “times less active than donepezil” value ([3]; ratio of AChE IC50 values) was 14.8 times and the IC50 [4] was 5.33 ± 1.6 µM. For the same molecule, the “type of AChE inhibition” value [5] was “mixed-type inhibitor”, the “Kui (uncompetitive inhibition constant)” value ([5]; hAChE, ATC 0.1–1 mM, pH 8.0) was 22.8 ± 1.5 µM and the Ki ([5]; hAChE, ATC 0.1–1 mM, pH 8.0, read-out: Kci (competitive inhibition constant)) was 6.8 ± 0.4 µM.
For `CC1(C)C(=O)CC[C@@]2(C)C1CC[C@]1(C)C2CC=C2C3C[C@@](C)(C(=O)NC4CN5CCC4CC5)CC[C@]3(C)CC[C@]21C` (mixture of isomers) [Compound 9, 3-oxo-11-dezoxo-olean-12-en-30-((±)-3-aminoquinuclidine) amide], the IC50 [3] was 29 µM and 28.9 µM and the “AChE inhibitory activity (in words)” value [3] was “weak activity”.
With `C=C(C)[C@@H]1CC[C@]2(C(=O)NC3CN4CCC3CC4)CC[C@]3(C)C(CCC4[C@@]5(C)Cc6c([nH]c7ccccc67)C(C)(C)C5CC[C@]43C)C12` (mixture of isomers) [Compound 10, [3,2b]Indolo-lup-20-en-28-((±)-3-aminoquinuclidine) amide] the IC50 [3] was 4.77 ± 0.21 µM and the “times more active than 3-oxo-analog” value ([3]; ratio of AChE IC50 values) was 3.5 times.
In the case of `CC1(C)CC[C@]2(C(=O)NC3CN4CCC3CC4)CC[C@]3(C)C(=CCC4[C@@]5(C)Cc6c([nH]c7ccccc67)C(C)(C)C5CC[C@]43C)C2C1` (mixture of isomers) [Compound 11, [3,2b]Indolo-olean-12-en-28-((±)-3-aminoquinuclidine) amide], the IC50 [3] is reported as 0.47 ± 0.03 µM, the “AChE inhibitory activity (in words)” value [3] is reported as “weak activity” and the “times more active than 3-oxo-analog” value ([3]; ratio of AChE IC50 values) is reported as 3.5 times. The IC50 [4] was 8.89 ± 0.4 µM, the “type of AChE inhibition” value [5] was “uncompetitive type of inhibition” and the “type of AChE inhibition” value ([5]; listed as 2,3-indolo-oleanolic acid amide) was “uncompetitive-type inhibitor”. For the same molecule, the “Kui (uncompetitive inhibition constant)” value ([5]; hAChE, ATC 0.1–1 mM, pH 8.0) was 19.1 ± 5.1 µM.
With `C[C@@H]1CC[C@]2(C(=O)NC3CN4CCC3CC4)CC[C@]3(C)C(=CCC4[C@@]5(C)Cc6c([nH]c7ccccc67)C(C)(C)C5CC[C@]43C)C2[C@H]1C` (mixture of isomers) [Compound 12, [3,2b]Indolo-urs-12-en-28-((±)-3-aminoquinuclidine) amide] the IC50 [3] was 18 ± 1.39 µM and the “AChE inhibitory activity (in words)” value [3] was “weak activity”.
With `CC1(C)c2[nH]c3ccccc3c2C[C@@]2(C)C1CC[C@]1(C)C2CC=C2C3C[C@@](C)(C(=O)NC4CN5CCC4CC5)CC[C@]3(C)CC[C@]21C` (mixture of isomers) [Compound 13, [3,2b]Indolo-11-dezoxo-olean-12-en-30-((±)-3-aminoquinuclidine) amide] the IC50 [3] was > 128 µM and the “AChE inhibitory activity (in words)” value [3] was “weak activity”.
For `CC1(C)CC[C@]2(C(=O)O)CC[C@]3(C)C(=CC[C@@H]4[C@@]5(C)CC[C@H](O)C(C)(C)[C@@H]5CC[C@]43C)[C@@H]2C1` [OA, oleanolic acid], the “BChE activity (in words)” value [2] is listed as “inactivity” and the “type of inhibition of AChE” value [1] is listed as “competitive”.
For `C[C@H]1[C@H](C)CC[C@]2(C(=O)O)CC[C@]3(C)C(=CC[C@@H]4[C@@]5(C)CC[C@H](O)C(C)(C)[C@@H]5CC[C@]43C)[C@H]12` [UA, ursolic acid], the “BChE activity (in words)” value [2] is listed as “inactivity” and the “type of inhibition of AChE” value [1] is listed as “mixed”.
In the case of `C[C@@H]1CC[C@@]2(OC1)O[C@H]1C[C@H]3[C@@H]4CC=C5C[C@@H](O)CC[C@]5(C)[C@H]4CC[C@]3(C)[C@H]1[C@@H]2C` [diosgenin], the “cytotoxicity (in words)” value [6] is given as “does not exhibit cytotoxicity”.
In the case of `CC1(C)[C@@H](O[C@H]2O[C@H](C(=O)O)[C@@H](O)[C@H](O)[C@H]2O[C@@H]2O[C@H](C(=O)O)[C@@H](O)[C@H](O)[C@H]2O)CC[C@]2(C)[C@H]3C(=O)C=C4[C@@H]5C[C@@](C)(C(=O)O)CC[C@]5(C)CC[C@@]4(C)[C@]3(C)CC[C@@H]12` [glycyrrhizic acid, Glycyrrhizic acid], the “clinical effect of adjunctive therapy (in words)” value [7] is listed as “impressively greater symptomatic improvement, better treatment response, and a faster onset of clinical effects”.
For N-benzyl-3-benzamidoquinuclidine, the Ki ([2]; read-out: Ki, butyrylcholinesterase inhibitory activity) is listed as 3.7 µM.
